This passage reports IC50 results from patent publication US7879876B2, “Sulfonamide derivatives and use thereof for the modulation of metalloproteinases” (Merck Serono SA, priority 2005, dated 2011).

One assay concerns the target T1, gelatinase A (MMP-2) (Homo sapiens, UniProt P08253).
T1 sequence (P08253 110-660): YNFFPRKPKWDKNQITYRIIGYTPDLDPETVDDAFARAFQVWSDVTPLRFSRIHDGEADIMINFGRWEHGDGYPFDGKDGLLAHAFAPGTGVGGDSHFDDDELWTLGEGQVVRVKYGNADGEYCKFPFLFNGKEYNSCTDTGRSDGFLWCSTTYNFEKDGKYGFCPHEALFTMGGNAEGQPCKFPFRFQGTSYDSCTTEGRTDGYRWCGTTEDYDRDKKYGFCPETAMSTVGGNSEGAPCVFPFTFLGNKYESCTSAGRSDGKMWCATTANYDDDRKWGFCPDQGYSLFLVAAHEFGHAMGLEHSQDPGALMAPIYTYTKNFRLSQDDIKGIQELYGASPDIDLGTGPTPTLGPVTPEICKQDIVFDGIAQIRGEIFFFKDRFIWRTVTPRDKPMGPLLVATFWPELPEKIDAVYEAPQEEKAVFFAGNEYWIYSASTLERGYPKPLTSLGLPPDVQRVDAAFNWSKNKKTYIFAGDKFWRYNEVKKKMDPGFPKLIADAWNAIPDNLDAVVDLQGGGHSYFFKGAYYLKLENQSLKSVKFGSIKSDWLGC
The assay can be described thus: MMP-2 enzyme inhibition assay (coumarin-labelled peptide substrate). The class given is biochemical. Conditions: read-out: IC50 MMP2. Summed up: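 Recombinant human MMP-2, APMA-activated if necessary, run as for the MMP-9 protocol: McaPLGLDpaAR substrate (8 μM working dilution) in 100 mM Tris-HCl pH 7.6, 100 mM NaCl, 10 mM CaCl2, 0.05% Brij 35; ten 3-fold concentrations (100 μM–5.1 nM) in duplicate, 2 h at 37° C. Fluorescence ex 320/em 405 nm, unstopped; IC50 from four-parameter fit.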

A further assay concerns the target human ADAM17 (TACE) (Homo sapiens, UniProt P78536). Briefly: TACE enzyme inhibition assay. The class given is biochemical. In outline: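 Recombinant human ADAM17 was run in 20 mM HEPES pH 7.5 with 0.05% Brij 35, using Mca/Dnp-TNF-alpha(−5 to +6) amide substrate (5 μM solution), for 1.5 h at room temperature. Fluorescence (ex 355/em 405 nm) was read unstopped over ten concentrations (100 μM–0.01 nM). IC50 came from a four-parameter fit, rounded to one significant figure.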

Chain of human ADAM17 (TACE) (P78536 215-824): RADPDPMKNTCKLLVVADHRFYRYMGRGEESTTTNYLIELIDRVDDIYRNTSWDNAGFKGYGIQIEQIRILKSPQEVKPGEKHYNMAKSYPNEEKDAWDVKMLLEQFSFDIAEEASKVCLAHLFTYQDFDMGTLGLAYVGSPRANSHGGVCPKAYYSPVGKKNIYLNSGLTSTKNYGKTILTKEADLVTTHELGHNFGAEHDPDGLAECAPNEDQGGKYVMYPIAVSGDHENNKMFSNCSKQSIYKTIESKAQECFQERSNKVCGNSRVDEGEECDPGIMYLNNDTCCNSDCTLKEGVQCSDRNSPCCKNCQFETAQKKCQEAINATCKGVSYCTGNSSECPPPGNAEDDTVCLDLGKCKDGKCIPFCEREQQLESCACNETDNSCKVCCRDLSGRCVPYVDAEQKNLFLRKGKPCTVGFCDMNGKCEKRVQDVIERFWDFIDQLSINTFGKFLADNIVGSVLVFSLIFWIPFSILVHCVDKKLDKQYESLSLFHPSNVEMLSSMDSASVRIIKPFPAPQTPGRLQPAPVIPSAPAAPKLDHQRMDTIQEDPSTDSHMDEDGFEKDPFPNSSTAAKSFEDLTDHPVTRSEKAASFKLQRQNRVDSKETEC

A word on the IC50: it is the concentration that gives 50% inhibition. For `CCC(CC)C(CS(=O)(=O)N1CCc2cc(C(C)C)ccc2C1)N(O)C=O` (centres unmarked) [Example 35, N-(2-ethyl-1-{[(6-isopropyl-3,4-dihydroisoquinolin-2(1H)-yl)sulfonyl]methyl}butyl)-N-hydroxyformamide], the IC50 at gelatinase A (MMP-2) was 0.062 µM; at human ADAM17 (TACE) it was greater than 5 µM.
Taken in the same sequence, the figures for `CC1(C)OC[C@H](C(CS(=O)(=O)N2CCc3ccc(Cl)cc3C2)N(O)C=O)O1` (stereo partly drawn) [Example 19, N-{2-[(7-chloro-3,4-dihydroisoquinolin-2(1H)-yl)sulfonyl]-1-[(4S)-2,2-dimethyl-1,3-dioxolan-4-yl]ethyl}-N-hydroxyformamide] were 0.01 µM and 0.023 µM.
Take `O=CN(O)C(CS(=O)(=O)N1CCc2ccccc2C1)c1cccnc1` (centres unmarked) [Example 10, N-[2-(3,4-dihydroisoquinolin-2(1H)-ylsulfonyl)-1-pyridin-3-ylethyl]-N-hydroxyformamide]: the values for the half-maximal inhibitory concentration (IC50) on gelatinase A (MMP-2) and on human ADAM17 (TACE) were greater than 5 µM and 0.067 µM, respectively.
Taken in the same sequence, the figures for `COc1ccc2c(c1)CN(S(=O)(=O)CC(CCC1CCCO1)N(O)C=O)CC2` (centres unmarked) [Example 33, N-hydroxy-N-[1-{[(7-methoxy-3,4-dihydroisoquinolin-2(1H)-yl)sulfonyl]methyl}-3-(tetrahydrofuran-2-yl)propyl]formamide] were 0.151 µM and 0.427 µM.
Taken in the same sequence, the figures for `O=CN(O)C(CCC(F)(F)F)CS(=O)(=O)N1CCc2ccc(Cl)cc2C1` (centres unmarked) [Example 76, N-(1-{[(7-chloro-3,4-dihydroisoquinolin-2(1H)-yl)-sulfonyl]methyl}-4,4,4-trifluorobutyl)-N-hydroxyformamide] were 0.082 µM and 0.115 µM.
Taken in the same sequence, the figures for `COc1cc2c(cc1OC)CN(S(=O)(=O)CC([C@H](O)CO)N(O)C=O)CC2` (stereo partly drawn) [Example 24, N-((2S)-1-{[(6,7-dimethoxy-3,4-dihydroisoquinolin-2(1H)-yl)sulfonyl]methyl}-2,3-dihydroxypropyl)-N-hydroxyformamide] were greater than 5 µM and greater than 5 µM.
As for `CCCCCC(C)(C)C(CS(=O)(=O)N1CCc2cc(C(F)(F)F)ccc2C1)N(O)C=O` (centres unmarked) [Example 63, N-[2,2-dimethyl-1-({[6-(trifluoromethyl)-3,4-dihydro-isoquinolin-2(1H)-yl]sulfonyl}methyl)heptyl]-N-hydroxyformamide], the IC50 at gelatinase A (MMP-2) and against human ADAM17 (TACE) was greater than 5 µM in each case.
For the compound `O=CN(O)C(CS(=O)(=O)N1CCc2ccc(F)cc2C1)C1CCN(Cc2ccccc2)CC1` (centres unmarked) [Example 53, N-{1-(1-benzylpiperidin-4-yl)-2-[(7-fluoro-3,4-dihydro-isoquinolin-2(1H)-yl)sulfonyl]ethyl}-N-hydroxyformamide], the IC50 on gelatinase A (MMP-2) was determined as 0.298 µM; against human ADAM17 (TACE) it was 0.245 µM.
The like results for `CCC(CC)C(CS(=O)(=O)N1CCc2cc(Cl)c(Cl)cc2C1)N(O)C=O` (centres unmarked) [Example 34, N-(1-{[(6,7-dichloro-3,4-dihydroisoquinolin-2(1H)-yl)-sulfonyl]methyl}-2-ethylbutyl)-N-hydroxyformamide] were, in that order, 0.035 µM and 0.353 µM.
The like results for `CC(C)(CS(=O)(=O)N1CCc2ccc(Br)cc2C1)N(O)C=O` [Example 56, N-{2-[(7-bromo-3,4-dihydroisoquinolin-2(1H)-yl)sulfonyl]-1,1-dimethylethyl}-N-hydroxyformamide] were, in that order, 0.19 µM and greater than 5 µM.
The like results for `O=CN(O)[C@H](CS(=O)(=O)N1CCc2ccc(Cl)cc2C1)[C@H]1CCCO1` [Example 23, N-{(1S)-2-[(7-chloro-3,4-dihydroisoquinolin-2(1H)-yl)sulfonyl]-1-[(2R)-tetrahydrofuran-2-yl]ethyl}-N-hydroxyformamide] were, in that order, 0.027 µM and 0.013 µM.
Regarding `O=CN(O)C(CS(=O)(=O)N1CCc2ccc(C(F)(F)F)cc2C1)C1CC1` (centres unmarked) [Example 83, N-(1-cyclopropyl-2-{[7-(trifluoromethyl)-3,4-dihydroisoquinolin-2(1H)-yl]sulfonyl}ethyl)-N-hydroxyformamide], the half-inhibitory concentration (IC50) on gelatinase A (MMP-2) is 0.686 µM; on human ADAM17 (TACE), greater than 5 µM.
Turning to `O=CN(O)C(COc1ccccc1)CS(=O)(=O)N1CCc2ccc(Cl)cc2C1` (centres unmarked) [Example 61, N-[2-[(7-chloro-3,4-dihydroisoquinolin-2(1H)-yl)sulfonyl]-1-(phenoxymethyl)ethyl]-N-hydroxyformamide], the IC50 came to 0.038 µM at gelatinase A (MMP-2) and 0.089 µM against human ADAM17 (TACE).
The like results for `CC1(C)OC[C@H](C(CS(=O)(=O)N2Cc3ccccc3C2)N(O)C=O)O1` (stereo partly drawn) [Example 16, N-{2-(1,3-dihydro-2H-isoindol-2-ylsulfonyl)-1-[(4S)-2,2-dimethyl-1,3-dioxolan-4-yl]ethyl}-N-hydroxyformamide] were, in that order, 0.078 µM and 0.311 µM.
Taken in the same sequence, the figures for `CCC(CC)C(CS(=O)(=O)N1CCc2ccc(OC)cc2C1)N(O)C=O` (centres unmarked) [Example 38, N-(2-ethyl-1-{[(7-methoxy-3,4-dihydroisoquinolin-2(1H)-yl)sulfonyl]methyl}butyl)-N-hydroxyformamide] were 0.071 µM and 0.276 µM.
The like results for `O=CN(O)C(CS(=O)(=O)N1CCc2cc(C(F)(F)F)ccc2C1)[C@H]1CCCO1` (stereo partly drawn) [Example 47, N-hydroxy-N-(1-[(2R)-tetrahydrofuran-2-yl]-2-{[6-(tri-fluoromethyl)-3,4-dihydroisoquinolin-2(1H)-yl]sulfonyl}ethyl)formamide] were, in that order, 0.033 µM and 0.933 µM.
For `CCC(CC)C(CS(=O)(=O)N1CCc2ccc(Br)cc2C1)N(O)C=O` (centres unmarked) [Example 36, N-(1-{[(7-bromo-3,4-dihydroisoquinolin-2(1H)-yl)sulfonyl]-methyl}-2-ethylbutyl)-N-hydroxyformamide], the 50% inhibitory concentration (IC50) amounted to 0.041 µM at gelatinase A (MMP-2) and 0.228 µM against human ADAM17 (TACE).
In the case of `CC1(C)OC[C@H](C(CS(=O)(=O)N2CCc3ccccc3C2)N(O)C=O)O1` (stereo partly drawn) [Example 2, N-{2-(3,4-dihydroisoquinolin-2(1H)-ylsulfonyl)-1-[(4S)-2,2-dimethyl-1,3-dioxolan-4-yl]ethyl}-N-hydroxyformamide], the values for the IC50 at gelatinase A (MMP-2) and against human ADAM17 (TACE) were 0.53 µM and 0.033 µM, respectively.
Taken in the same sequence, the figures for `O=CN(O)C(CCc1ccccc1)CS(=O)(=O)N1Cc2ccccc2C1` (centres unmarked) [Example 6, N-{1-[(1,3-dihydro-2H-isoindol-2-ylsulfonyl)methyl]-3-phenylpropyl}-N-hydroxyformamide] were 0.323 µM and 0.28 µM.
